Reference: ChEMBL document CHEMBL1201862, “PubChem BioAssay data set” (2004)
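Interpolation was linear, between the two tested concentrations surrounding the appropriate level; five concentrations were tested over 48 hours in 96-well plates. GI50 is the concentration that inhibits growth by half.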 Calls of active or inactive are those of the source. Cut-off read from the data, not from the text of the source: active = GI50 up to about 1.1 µM and inactive = higher.

Legend:
Experiment in all cases: DTP human tumour cell line panel, 48 h
786-0 = tested on: 786-0
A498 = tested on: A498
A549 = tested on: A549
ACHN = tested on: ACHN
BT-549 = tested on: BT-549
CCRF-CEM = tested on: CCRF-CEM
COLO 205 = tested on: COLO 205
DU-145 = tested on: DU-145
EKVX = tested on: EKVX
HCC 2998 = tested on: HCC 2998
HCT-116 = tested on: HCT-116
HCT-15 = tested on: HCT-15
HL-60 = tested on: HL-60
HOP-62 = tested on: HOP-62
HOP-92 = tested on: HOP-92
HT-29 = tested on: HT-29
Hs-578T = tested on: Hs-578T
IGROV-1 = tested on: IGROV-1
K562 = tested on: K562
KM12 = tested on: KM12
M14 = tested on: M14
MCF7 = tested on: MCF7
MDA-MB-231 = tested on: MDA-MB-231
MDA-MB-435 = tested on: MDA-MB-435
MDA-N = tested on: MDA-N
MOLT-4 = tested on: MOLT-4
NCI-H226 = tested on: NCI-H226
NCI-H23 = tested on: NCI-H23
NCI-H460 = tested on: NCI-H460
NCI/ADR-RES = tested on: NCI/ADR-RES
OVCAR-3 = tested on: OVCAR-3
OVCAR-4 = tested on: OVCAR-4
OVCAR-5 = tested on: OVCAR-5
OVCAR-8 = tested on: OVCAR-8
RPMI-8226 = tested on: RPMI-8226
RXF 393 = tested on: RXF 393
SF-268 = tested on: SF-268
SF-295 = tested on: SF-295
SF-539 = tested on: SF-539
SK-MEL-28 = tested on: SK-MEL-28
SK-MEL-2 = tested on: SK-MEL-2
SK-MEL-5 = tested on: SK-MEL-5
SK-OV-3 = tested on: SK-OV-3
SN12C = tested on: SN12C
SNB-19 = tested on: SNB-19
SNB-75 = tested on: SNB-75
SW-620 = tested on: SW-620
T47D = tested on: T47D
TK-10 = tested on: TK-10
U-251 = tested on: U-251
UACC-257 = tested on: UACC-257
UACC-62 = tested on: UACC-62
UO-31 = tested on: UO-31
CAKI-1 = tested on: CAKI-1
LOX IMVI = tested on: LOX IMVI
Malme-3M = tested on: Malme-3M
NCI-H522 = tested on: NCI-H522
PC-3 = tested on: PC-3
SR = tested on: SR

`O=C(Cc1ccccc1)NN1C(=O)/C(=C\c2ccc(O)cc2)S/C1=N\c1ccccc1` was tested, and the GI50 (786-0) was > 100 µM (inactive), the GI50 (A498) was > 100 µM (inactive) and the GI50 (A549) was > 100 µM (inactive). For the same molecule, the GI50 (ACHN) was > 100 µM (inactive), the GI50 (BT-549) was > 100 µM (inactive) and the GI50 (CCRF-CEM) was > 100 µM (inactive). For the same molecule, the GI50 (COLO 205) was > 100 µM (inactive), the GI50 (DU-145) was > 100 µM (inactive) and the GI50 (EKVX) was > 100 µM (inactive). The GI50 (HCC 2998) was > 100 µM (inactive), the GI50 (HCT-116) was > 100 µM (inactive) and the GI50 (HCT-15) was > 100 µM. For the same molecule, the GI50 (HL-60) was > 100 µM (inactive), the GI50 (HOP-62) was > 100 µM (inactive) and the GI50 (HOP-92) was 21.6 µM (inactive). The GI50 (HT-29) was > 100 µM (inactive), the GI50 (Hs-578T) was > 100 µM (inactive) and the GI50 (IGROV-1) was > 100 µM (inactive). The GI50 (K562) was > 100 µM (inactive), the GI50 (KM12) was > 100 µM (inactive) and the GI50 (M14) was > 100 µM (inactive). For the same molecule, the GI50 (MCF7) was 84.1 µM (inactive), the GI50 (MDA-MB-231) was > 100 µM (inactive) and the GI50 (MDA-MB-435) was > 100 µM (inactive). The GI50 (MDA-N) was > 100 µM (inactive), the GI50 (MOLT-4) was 95.5 µM (inactive) and the GI50 (NCI-H226) was > 100 µM (inactive). For the same molecule, the GI50 (NCI-H23) was > 100 µM (inactive), the GI50 (NCI-H460) was > 100 µM (inactive) and the GI50 (NCI/ADR-RES) was > 100 µM (inactive). For the same molecule, the GI50 (OVCAR-3) was > 100 µM (inactive), the GI50 (OVCAR-4) was > 100 µM (inactive) and the GI50 (OVCAR-5) was > 100 µM (inactive). The GI50 (OVCAR-8) was > 100 µM (inactive), the GI50 (RPMI-8226) was > 100 µM (inactive) and the GI50 (RXF 393) was > 100 µM (inactive). For the same molecule, the GI50 (SF-268) was > 100 µM (inactive), the GI50 (SF-295) was > 100 µM (inactive) and the GI50 (SF-539) was > 100 µM (inactive). The GI50 (SK-MEL-28) was > 100 µM (inactive), the GI50 (SK-MEL-2) was > 100 µM (inactive) and the GI50 (SK-MEL-5) was > 100 µM (inactive). For the same molecule, the GI50 (SK-OV-3) was > 100 µM (inactive), the GI50 (SN12C) was > 100 µM (inactive) and the GI50 (SNB-19) was > 100 µM (inactive). For the same molecule, the GI50 (SNB-75) was 50.7 µM (inactive), the GI50 (SW-620) was > 100 µM (inactive) and the GI50 (T47D) was 41 µM (inactive). For the same molecule, the GI50 (TK-10) was > 100 µM (inactive), the GI50 (U-251) was > 100 µM (inactive) and the GI50 (UACC-257) was > 100 µM (inactive). For the same molecule, the GI50 (UACC-62) was > 100 µM (inactive) and the GI50 (UO-31) was > 100 µM (inactive).

In the case of `Cc1[nH]n(C(=N)N)c(=O)c1CCO`, the GI50 (786-0) was 1.67 µM (inactive), the GI50 (A498) was > 100 µM (inactive) and the GI50 (A549) was > 100 µM (inactive). The GI50 (ACHN) was > 100 µM (inactive), the GI50 (BT-549) was > 100 µM (inactive) and the GI50 (CAKI-1) was > 100 µM (inactive). For the same molecule, the GI50 (CCRF-CEM) was > 100 µM (inactive), the GI50 (COLO 205) was > 100 µM (inactive) and the GI50 (DU-145) was > 100 µM (inactive). For the same molecule, the GI50 (HCC 2998) was > 100 µM (inactive), the GI50 (HCT-116) was > 100 µM (inactive) and the GI50 (HCT-15) was > 100 µM. The GI50 (HL-60) was > 100 µM (inactive), the GI50 (HOP-62) was > 100 µM (inactive) and the GI50 (HOP-92) was > 100 µM (inactive). For the same molecule, the GI50 (HT-29) was > 100 µM (inactive), the GI50 (Hs-578T) was > 100 µM (inactive) and the GI50 (IGROV-1) was > 100 µM (inactive). For the same molecule, the GI50 (K562) was > 100 µM (inactive), the GI50 (LOX IMVI) was > 100 µM (inactive) and the GI50 (M14) was > 100 µM (inactive). For the same molecule, the GI50 (MCF7) was > 100 µM (inactive), the GI50 (MDA-MB-231) was > 100 µM (inactive) and the GI50 (MDA-MB-435) was > 100 µM (inactive). The GI50 (MDA-N) was > 100 µM (inactive), the GI50 (Malme-3M) was > 100 µM (inactive) and the GI50 (NCI-H226) was > 100 µM (inactive). For the same molecule, the GI50 (NCI-H23) was > 100 µM (inactive), the GI50 (NCI-H460) was > 100 µM (inactive) and the GI50 (NCI-H522) was > 100 µM (inactive). For the same molecule, the GI50 (NCI/ADR-RES) was 2.76 µM (inactive), the GI50 (OVCAR-3) was > 100 µM (inactive) and the GI50 (OVCAR-4) was > 100 µM (inactive). The GI50 (OVCAR-5) was > 100 µM (inactive), the GI50 (OVCAR-8) was 1.68 µM (inactive) and the GI50 (PC-3) was > 100 µM (inactive). For the same molecule, the GI50 (RXF 393) was > 100 µM (inactive), the GI50 (SF-268) was > 100 µM (inactive) and the GI50 (SF-295) was > 100 µM (inactive). For the same molecule, the GI50 (SF-539) was > 100 µM (inactive), the GI50 (SK-MEL-28) was > 100 µM (inactive) and the GI50 (SK-MEL-2) was > 100 µM (inactive). For the same molecule, the GI50 (SK-MEL-5) was > 100 µM (inactive), the GI50 (SK-OV-3) was > 100 µM (inactive) and the GI50 (SN12C) was > 100 µM (inactive). For the same molecule, the GI50 (SNB-19) was > 100 µM (inactive), the GI50 (SNB-75) was > 100 µM (inactive) and the GI50 (SR) was 17.1 µM (inactive). For the same molecule, the GI50 (SW-620) was > 100 µM (inactive), the GI50 (TK-10) was > 100 µM (inactive) and the GI50 (U-251) was > 100 µM (inactive). The GI50 (UACC-257) was > 100 µM (inactive), the GI50 (UACC-62) was > 100 µM (inactive) and the GI50 (UO-31) was > 100 µM (inactive).

In the case of `COc1ccc(NC(S)=Nc2ccccc2)cc1`, the GI50 (786-0) was > 100 µM (inactive), the GI50 (A498) was > 100 µM (inactive) and the GI50 (A549) was > 100 µM (inactive). The GI50 (ACHN) was > 100 µM (inactive), the GI50 (BT-549) was > 100 µM (inactive) and the GI50 (CAKI-1) was > 100 µM (inactive). For the same molecule, the GI50 (COLO 205) was > 100 µM (inactive), the GI50 (DU-145) was > 100 µM (inactive) and the GI50 (EKVX) was 96.4 µM (inactive). For the same molecule, the GI50 (HCC 2998) was > 100 µM (inactive), the GI50 (HCT-116) was > 100 µM (inactive) and the GI50 (HCT-15) was > 100 µM. The GI50 (HL-60) was 24.2 µM (inactive), the GI50 (HOP-62) was > 100 µM (inactive) and the GI50 (HOP-92) was > 100 µM (inactive). The GI50 (HT-29) was > 100 µM (inactive), the GI50 (Hs-578T) was > 100 µM (inactive) and the GI50 (IGROV-1) was > 100 µM (inactive). For the same molecule, the GI50 (K562) was > 100 µM (inactive), the GI50 (LOX IMVI) was > 100 µM (inactive) and the GI50 (M14) was > 100 µM (inactive). For the same molecule, the GI50 (MCF7) was > 100 µM (inactive), the GI50 (MDA-MB-231) was > 100 µM (inactive) and the GI50 (MDA-MB-435) was > 100 µM (inactive). The GI50 (MDA-N) was > 100 µM (inactive), the GI50 (Malme-3M) was > 100 µM (inactive) and the GI50 (NCI-H226) was > 100 µM (inactive). For the same molecule, the GI50 (NCI-H23) was > 100 µM (inactive), the GI50 (NCI-H460) was > 100 µM (inactive) and the GI50 (NCI-H522) was > 100 µM (inactive). For the same molecule, the GI50 (NCI/ADR-RES) was > 100 µM (inactive), the GI50 (OVCAR-3) was > 100 µM (inactive) and the GI50 (OVCAR-4) was > 100 µM (inactive). The GI50 (OVCAR-5) was > 100 µM (inactive), the GI50 (OVCAR-8) was > 100 µM (inactive) and the GI50 (PC-3) was > 100 µM (inactive). For the same molecule, the GI50 (RPMI-8226) was > 100 µM (inactive), the GI50 (RXF 393) was 98.2 µM (inactive) and the GI50 (SF-268) was > 100 µM (inactive). For the same molecule, the GI50 (SF-295) was > 100 µM (inactive), the GI50 (SF-539) was > 100 µM (inactive) and the GI50 (SK-MEL-28) was > 100 µM (inactive). For the same molecule, the GI50 (SK-MEL-2) was > 100 µM (inactive), the GI50 (SK-MEL-5) was > 100 µM (inactive) and the GI50 (SK-OV-3) was > 100 µM (inactive). The GI50 (SN12C) was > 100 µM (inactive), the GI50 (SNB-19) was > 100 µM (inactive) and the GI50 (SNB-75) was > 100 µM (inactive). The GI50 (SR) was > 100 µM (inactive), the GI50 (SW-620) was > 100 µM (inactive) and the GI50 (TK-10) was > 100 µM (inactive). For the same molecule, the GI50 (U-251) was > 100 µM (inactive), the GI50 (UACC-257) was 39.4 µM (inactive) and the GI50 (UACC-62) was > 100 µM (inactive). The GI50 (UO-31) was > 100 µM (inactive).
